Assay results from patent US20240391936A1, “TETRAHYDROTHIENO PYRIDINE DERIVATIVES AS DDRS INHIBITORS” (CHIESI FARMACEUTICI S.P.A., priority 2021, published 2024).

How the values were obtained:
[1] = molecular target: T1, DDR1 (Homo sapiens, UniProt Q08345); test: DDR1 binding assay (LanthaScreen Europium Kinase Binding assay); parameters: purchased Carna Biosciences; conditions: binding assay, 5 nM DDR1, 20 nM Kinase Tracer 178; Ki from IC50 by Cheng-Prusoff; read-out: Ki DDR1
Procedure: (§1) DDR1 and DDR2 binding assays were performed using Life Technologies LanthaScreen™ Europium Kinase Binding assay. The compounds were incubated with 5 nM DDR1 (Carna Biosciences) or 5 nM DDR2 (Life Technologies) for 1 hour at room temperature in white 384-well OptiPlate (PerkinElmer), containing 20 nM or 10 nM Kinase Tracer 178 respectively and 2 nM Europium labelled anti-GST antibody (Life Technologies) in assay buffer (50 mM HEPES pH 7.5, 10 mM MgCl2, 1 mM EGTA and 0.01% BRIJ35).
(§2) The ratio of fluorescence emission 665 nm/615 nm after excitation at 340 nm was obtained using the Tecan Spark 20M plate reader. IC50 values were determined in GraphPad Prism 7.0 software, using 4 parameter model: log(inhibitor) vs. response. IC50 values were converted in Ki using the Cheng-Prusoff equation

[2] = molecular target: T2, DDR2 (Homo sapiens, UniProt Q16832); test: DDR2 binding assay (LanthaScreen Europium Kinase Binding assay); parameters: purchased Life Technologies; conditions: binding assay, 5 nM DDR2, 10 nM Kinase Tracer 178; Ki from IC50 by Cheng-Prusoff; read-out: Ki DDR2
T2 sequence (Q16832 22-855): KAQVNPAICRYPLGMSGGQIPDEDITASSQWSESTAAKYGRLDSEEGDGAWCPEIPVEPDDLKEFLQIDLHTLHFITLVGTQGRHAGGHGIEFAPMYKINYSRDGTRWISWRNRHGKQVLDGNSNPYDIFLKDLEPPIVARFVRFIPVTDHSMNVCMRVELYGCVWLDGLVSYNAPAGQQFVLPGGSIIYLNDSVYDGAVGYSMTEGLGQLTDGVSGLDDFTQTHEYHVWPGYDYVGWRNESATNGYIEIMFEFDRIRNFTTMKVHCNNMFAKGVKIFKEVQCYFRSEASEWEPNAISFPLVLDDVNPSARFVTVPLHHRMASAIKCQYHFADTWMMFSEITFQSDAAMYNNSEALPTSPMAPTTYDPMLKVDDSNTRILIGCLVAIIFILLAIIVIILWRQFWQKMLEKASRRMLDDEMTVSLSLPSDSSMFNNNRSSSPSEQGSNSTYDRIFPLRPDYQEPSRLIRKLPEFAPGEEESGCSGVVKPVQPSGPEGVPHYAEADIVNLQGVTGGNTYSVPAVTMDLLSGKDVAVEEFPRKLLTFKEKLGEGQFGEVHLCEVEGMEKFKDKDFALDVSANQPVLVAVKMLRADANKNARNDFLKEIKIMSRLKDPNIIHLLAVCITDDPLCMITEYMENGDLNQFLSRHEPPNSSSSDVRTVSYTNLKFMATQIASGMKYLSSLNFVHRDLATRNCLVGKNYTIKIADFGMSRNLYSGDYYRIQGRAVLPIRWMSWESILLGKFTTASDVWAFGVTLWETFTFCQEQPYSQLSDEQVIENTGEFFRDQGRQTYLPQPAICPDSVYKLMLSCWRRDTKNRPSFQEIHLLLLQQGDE
Procedure: as §1, §2

[3] = molecular target: T1, DDR1; test: DDR1 cell based assay (PathHunter U2OS DDR1 assay); parameters: host or cells: U2OS-DDR1 (PathHunter); conditions: U2OS-DDR1 cells, bovine Type II Collagen 20 μg/ml
Procedure: The inhibition of DDR1 receptor activation by compounds was evaluated by PathHunter® U2OS DDR1 assay (Eurofins DiscoverX), according to the manufacturer's instructions. Briefly, U2OS-DDR1 cells were seeded in white 384-well plates at a density of 5000 cells/well and incubated for 2 hours at 37° C. and 5% CO2. Cells were then treated with compounds at different concentrations and incubated for 30 minutes, before stimulation with bovine Type II Collagen 20 μg/ml and incubation overnight at 37° C. and 5% CO2. PathHunter Detection Reagents were prepared according to the protocol provided by DiscoverX and 20 μl/well of this mix were added to each well. After incubating the plates for 1 hour at room temperature in the dark, luminescence signal was acquired with a plate reader. Raw data were normalized to vehicle control (0% for normalization) and positive control (100% for normalization; cells treated with 20 μg/ml collagen II) and IC50 parameters were calculated in GraphPad Prism 8.0 software, using sigmoidal dose-response curve fitting with variable slope.

T1 sequence (Q08345 19-913): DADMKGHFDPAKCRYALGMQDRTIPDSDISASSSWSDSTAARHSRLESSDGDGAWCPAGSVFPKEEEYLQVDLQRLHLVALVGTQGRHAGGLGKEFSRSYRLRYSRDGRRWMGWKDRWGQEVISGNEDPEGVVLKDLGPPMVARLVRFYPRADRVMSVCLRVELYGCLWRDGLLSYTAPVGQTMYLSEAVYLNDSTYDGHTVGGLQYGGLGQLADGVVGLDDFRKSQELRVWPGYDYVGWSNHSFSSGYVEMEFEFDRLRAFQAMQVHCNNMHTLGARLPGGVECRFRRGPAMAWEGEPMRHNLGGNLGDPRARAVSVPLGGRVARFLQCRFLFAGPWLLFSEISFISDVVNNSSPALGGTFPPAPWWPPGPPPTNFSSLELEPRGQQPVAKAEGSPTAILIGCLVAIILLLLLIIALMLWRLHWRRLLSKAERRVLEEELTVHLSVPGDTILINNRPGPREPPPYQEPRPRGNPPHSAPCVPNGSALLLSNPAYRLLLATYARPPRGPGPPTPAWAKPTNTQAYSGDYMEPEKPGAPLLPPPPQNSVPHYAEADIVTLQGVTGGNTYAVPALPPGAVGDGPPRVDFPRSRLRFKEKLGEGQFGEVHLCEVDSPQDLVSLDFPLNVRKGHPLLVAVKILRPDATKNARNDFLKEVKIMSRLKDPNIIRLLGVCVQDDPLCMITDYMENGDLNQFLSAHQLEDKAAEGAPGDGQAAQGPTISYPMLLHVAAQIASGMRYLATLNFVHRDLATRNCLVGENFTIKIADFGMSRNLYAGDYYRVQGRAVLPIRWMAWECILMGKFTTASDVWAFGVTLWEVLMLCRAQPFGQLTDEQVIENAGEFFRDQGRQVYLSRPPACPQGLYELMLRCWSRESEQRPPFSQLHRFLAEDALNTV

| Ki [1] [nM] | Ki [2] [nM] | IC50 [3] [nM] | Structure (SMILES) |
| --- | --- | --- | --- |
| < 25 | < 25 | < 25 | O=C(Nc1cncc(OC(F)(F)F)c1)c1csc2c1CCN(C(=O)c1cnc3ccccn13)C2 [Example 186, 6-(imidazo[1,2-a]pyridine-3-carbonyl)-N-(5-(trifluoromethoxy)pyridin-3-yl)-4,5,6,7-tetrahydrothieno[2,3-c]pyridine-3-carboxamide] |
| < 25 | < 25 | 25 to 50 | N#Cc1cc(NC(=O)c2csc3c2CCN(C(=O)c2cnc4ccccn24)C3)cc(C(F)(F)F)c1 [Example 131, N-(3-cyano-5-(trifluoromethyl)phenyl)-6-(imidazo[1,2-a]pyridine-3-carbonyl)-4,5,6,7-tetrahydrothieno[2,3-c]pyridine-3-carboxamide] |
| < 25 | < 25 | 50 to 80 | CN(C)[C@@H]1CCN(C(=O)c2cc(NC(=O)c3csc4c3CCN(C(=O)c3cnc5ccccn35)C4)cc(C(F)(F)F)c2)C1 [Example 130, (R)-N-(3-(3-(dimethylamino)pyrrolidine-1-carbonyl)-5-(trifluoromethyl)phenyl)-6-(imidazo[1,2-a]pyridine-3-carbonyl)-4,5,6,7-tetrahydrothieno[2,3-c]pyridine-3-carboxamide] |
| < 25 | < 25 | 50 to 80 | CN(Cc1cc(NC(=O)c2csc3c2CCN(C(=O)c2cnc4ccccn24)C3)cc(C(F)(F)F)c1)C1COC1 [Example 53, 6-(imidazo[1,2-a]pyridine-3-carbonyl)-N-(3-((methyl(oxetan-3-yl)amino)methyl)-5-(trifluoromethyl)phenyl)-4,5,6,7-tetrahydrothieno[2,3-c]pyridine-3-carboxamide] |
| < 25 | < 25 | 25 to 50 | CN1CCC(Oc2ccc(NC(=O)c3csc4c3CCN(C(=O)c3cnc5ccccn35)C4)cc2C(F)(F)F)CC1 [Example 32, 6-(imidazo[1,2-a]pyridine-3-carbonyl)-N-(4-((1-methylpiperidin-4-yl)oxy)-3-(trifluoromethyl)phenyl)-4,5,6,7-tetrahydrothieno[2,3-c]pyridine-3-carboxamide] |
| < 25 | < 25 | 50 to 80 | CN(C)CC1CCN(Cc2cc(NC(=O)c3csc4c3CCN(C(=O)c3cnc5ccccn35)C4)cc(C(F)(F)F)c2)C1 (stereo not drawn) [Example 55, N-(3-((3-((dimethylamino)methyl)pyrrolidin-1-yl)methyl)-5-(trifluoromethyl)phenyl)-6-(imidazo[1,2-a]pyridine-3-carbonyl)-4,5,6,7-tetrahydrothieno[2,3-c]pyridine-3-carboxamide] |
| < 25 | < 25 | < 25 | O=C(Nc1cccc(C(F)(F)F)c1)c1csc2c1CCN(C(=O)c1cnc3cccnn13)C2 [Example 92, 6-(imidazo[1,2-b]pyridazine-3-carbonyl)-N-(3-(trifluoromethyl)phenyl)-4,5,6,7-tetrahydrothieno[2,3-c]pyridine-3-carboxamide] |
| < 25 | < 25 | < 25 | O=C(Nc1cncc(C(F)(F)F)c1)c1csc2c1CCN(C(=O)c1cnc3cc(F)ccn13)C2 [Example 144, 6-(7-fluoroimidazo[1,2-a]pyridine-3-carbonyl)-N-(5-(trifluoromethyl)pyridin-3-yl)-4,5,6,7-tetrahydrothieno[2,3-c]pyridine-3-carboxamide] |
| < 25 | < 25 | < 25 | CN(CCO)Cc1cc(NC(=O)c2csc3c2CCN(C(=O)c2cnc4ccccn24)C3)cc(C(F)(F)F)c1 [Example 57, N-(3-(((2-hydroxyethyl)(methyl)amino)methyl)-5-(trifluoromethyl)phenyl)-6-(imidazo[1,2-a]pyridine-3-carbonyl)-4,5,6,7-tetrahydrothieno[2,3-c]pyridine-3-carboxamide] |

The next lines start with the compound.

| Structure (SMILES) | Ki [1] [nM] | Ki [2] [nM] | IC50 [3] [nM] |
| --- | --- | --- | --- |
| CN1CCN(c2ccc3ncc(C(=O)N4CCc5c(C(=O)Nc6cc(C(C)(C)C)no6)csc5C4)n3c2)CC1 [Example 168, N-(3-(tert-butyl)isoxazol-5-yl)-6-(6-(4-methylpiperazin-1-yl)imidazo[1,2-a]pyridine-3-carbonyl)-4,5,6,7-tetrahydrothieno[2,3-c]pyridine-3-carboxamide] | < 25 | < 25 | 25 to 50 |
| Cc1ccc(-n2nc(C(C)(C)C)cc2NC(=O)c2csc3c2CCN(C(=O)c2cnc4ccccn24)C3)cc1 [Example 2, N-(3-(tert-butyl)-1-(p-tolyl)-1H-pyrazol-5-yl)-6-(imidazo[1,2-a]pyridine-3-carbonyl)-4,5,6,7-tetrahydrothieno[2,3-c]pyridine-3-carboxamide] | < 25 | < 25 | 25 to 50 |
| Cc1n[nH]c2ncc(CN3CCc4c(C(=O)Nc5cc(C6CC6)on5)csc4C3)cc12 [Example 148, N-(5-cyclopropylisoxazol-3-yl)-6-((3-methyl-1H-pyrazolo[3,4-b]pyridin-5-yl)methyl)-4,5,6,7-tetrahydrothieno[2,3-c]pyridine-3-carboxamide] | < 25 | < 25 | < 25 |
| Cn1nc(C(C)(C)C)cc1NC(=O)c1csc2c1CCN(C(=O)c1cnc3ccc(Cl)cn13)C2 [Example 83, N-(3-(tert-butyl)-1-methyl-1H-pyrazol-5-yl)-6-(6-chloroimidazo[1,2-a]pyridine-3-carbonyl)-4,5,6,7-tetrahydrothieno[2,3-c]pyridine-3-carboxamide] | < 25 | < 25 | 25 to 50 |
| O=C(Nc1cc(CO)cc(C(F)(F)F)c1)c1csc2c1CCN(C(=O)c1cnn3ccncc13)C2 [Example 187, N-(3-(hydroxymethyl)-5-(trifluoromethyl)phenyl)-6-(pyrazolo[1,5-a]pyrazine-3-carbonyl)-4,5,6,7-tetrahydrothieno[2,3-c]pyridine-3-carboxamide] | < 25 | < 25 | < 25 |
| CN1CCN(c2n[nH]c3ncc(CN4CCc5c(C(=O)Nc6cncc(C(F)(F)F)c6)csc5C4)cc23)CC1 [Example 149, 6-((3-(4-methylpiperazin-1-yl)-1H-pyrazolo[3,4-b]pyridin-5-yl)methyl)-N-(5-(trifluoromethyl)pyridin-3-yl)-4,5,6,7-tetrahydrothieno[2,3-c]pyridine-3-carboxamide] | < 25 | < 25 | 25 to 50 |
| CC(C)(C)c1cc(NC(=O)c2csc3c2CCN(C(=O)c2cnn4ccncc24)C3)no1 [Example 175, N-(5-(tert-butyl)isoxazol-3-yl)-6-(pyrazolo[1,5-a]pyrazine-3-carbonyl)-4,5,6,7-tetrahydrothieno[2,3-c]pyridine-3-carboxamide] | < 25 | < 25 | 50 to 80 |
| O=C(Nc1cc(CN2CCOCC2)cc(C(F)(F)F)c1)c1csc2c1CCN(C(=O)c1cnn3ccncc13)C2 [Example 172, N-(3-(morpholinomethyl)-5-(trifluoromethyl)phenyl)-6-(pyrazolo[1,5-a]pyrazine-3-carbonyl)-4,5,6,7-tetrahydrothieno[2,3-c]pyridine-3-carboxamide] | < 25 | < 25 | 25 to 50 |
